The source of these data is the OligoGym collection.

HELM strings list units from the 5' end as sugar, base in round brackets, then linkage (d deoxyribose, r ribose, m 2'-O-methyl, p phosphodiester). Strings are as the collection lists them; they lack the last nucleoside at the 3' end of the tested compound. [moe] = 2'-O-(2-methoxyethyl) (MOE); [sp] = phosphorothioate linkage; [m5C] = 5-methylcytosine

This series deals with UBE3A-ATS. Put plainly: mouse, dose not given. To be noted: ASO.
“RNA1{[moe]([m5C])[sp].[moe](A)p.[moe]([m5C])p.[moe](T)p.[moe](G)p.d(A)[sp].d(G)[sp].d(T)[sp].d(T)[sp].d(T)[sp].d(T)[sp].d(T)[sp].d(G)[sp].d(T)[sp].d(A)[sp].[moe](G)p.[moe](T)p.[moe](T)[sp].[moe]([m5C])}$$$$ (last 3' nucleoside missing)” came in with a 3 h FOB score of 4 score 0-7.

“RNA1{[moe](G)[sp].[moe]([m5C])p.[moe](T)p.[moe]([m5C])[sp].d(A)[sp].d(G)[sp].d(T)[sp].d(T)[sp].d(A)[sp].d(G)[sp].d(G)[sp].d(T)[sp].[moe](T)p.[moe](A)p.[moe](G)p.[moe](T)[sp].[moe](G)}$$$$ (last 3' nucleoside missing)” came in with a 3 h FOB score of 4 score 0-7.

As to “RNA1{[moe](G)[sp].[moe](T)p.[moe](G)p.[moe](A)[sp].d(G)[sp].d([m5C])[sp].d(T)[sp].d(A)[sp].d(T)[sp].d([m5C])[sp].d(T)[sp].d(G)[sp].[moe](T)p.[moe](A)p.[moe]([m5C])p.[moe](A)[sp].[moe](A)}$$$$ (last 3' nucleoside missing)”, the 3 h FOB score was 1.7 score 0-7.

Substance “RNA1{[moe](G)[sp].[moe](A)p.[moe]([m5C])p.[moe](T)p.[moe](A)p.d(T)[sp].d([m5C])[sp].d(T)[sp].d([m5C])[sp].d(A)[sp].d(G)[sp].d([m5C])[sp].d(A)[sp].d([m5C])[sp].d(T)[sp].[moe](A)p.[moe](G)p.[moe](G)[sp].[moe](G)}$$$$ (last 3' nucleoside missing)” gave a 3 h FOB score of 2 score 0-7.

Take “RNA1{[moe](T)[sp].[moe]([m5C])p.[moe](A)p.[moe](A)p.[moe]([m5C])p.d(T)[sp].d(A)[sp].d(T)[sp].d(T)[sp].d(T)[sp].d([m5C])[sp].d(T)[sp].d(A)[sp].d(T)[sp].d([m5C])[sp].[moe](A)p.[moe](A)p.[moe](G)[sp].[moe](G)}$$$$ (last 3' nucleoside missing)”: the 3 h FOB score came to 0 score 0-7.

“RNA1{[moe](G)[sp].[moe](T)p.[moe](A)p.[moe](G)p.[moe]([m5C])p.d(T)[sp].d(A)[sp].d(T)[sp].d(A)[sp].d(G)[sp].d(G)[sp].d(T)[sp].d(G)[sp].d(T)[sp].d([m5C])[sp].[moe](A)p.[moe]([m5C])p.[moe](A)[sp].[moe](T)}$$$$ (last 3' nucleoside missing)” had a 3 h FOB score of 6.2 score 0-7.

“RNA1{[moe](G)[sp].[moe](T)p.[moe](G)p.[moe](T)p.d(G)[sp].d(T)[sp].d(T)[sp].d(T)[sp].d(T)[sp].d(T)[sp].d([m5C])[sp].d([m5C])[sp].d(A)[sp].d(T)[sp].[moe](T)p.[moe](T)p.[moe](T)p.[moe](T)[sp].[moe]([m5C])}$$$$ (last 3' nucleoside missing)” gave a 3 h FOB score of 0 score 0-7.

Substance “RNA1{[moe](G)[sp].[moe]([m5C])p.[moe](A)p.[moe]([m5C])p.[moe](A)p.d([m5C])[sp].d([m5C])[sp].d(T)[sp].d(G)[sp].d(G)[sp].d(A)[sp].d(T)[sp].d(T)[sp].d(T)[sp].d([m5C])[sp].[moe](A)p.[moe]([m5C])p.[moe](T)[sp].[moe](A)}$$$$ (last 3' nucleoside missing)” displayed a 3 h FOB score of 2 score 0-7.

Substance “RNA1{[moe](T)[sp].[moe](A)p.[moe](T)p.[moe](T)p.d(G)[sp].d(G)[sp].d(T)[sp].d([m5C])[sp].d(A)[sp].d(T)[sp].d([m5C])[sp].d(T)[sp].d([m5C])[sp].d(G)[sp].[moe](G)p.[moe](G)p.[moe](T)p.[moe](A)[sp].[moe](T)}$$$$ (last 3' nucleoside missing)” showed a 3 h FOB score of 4 score 0-7.

“RNA1{[moe](G)[sp].[moe]([m5C])p.[moe](A)p.[moe]([m5C])p.[moe](A)p.d(T)[sp].d(A)[sp].d(G)[sp].d(A)[sp].d([m5C])[sp].d([m5C])[sp].d(A)[sp].d(T)[sp].d(A)[sp].d(G)[sp].[moe]([m5C])p.[moe](T)p.[moe](G)[sp].[moe](A)}$$$$ (last 3' nucleoside missing)” yielded a 3 h FOB score of 3.3 score 0-7.

Consider “RNA1{[moe](T)[sp].[moe](G)p.[moe]([m5C])p.[moe](T)p.[moe](T)p.[moe]([m5C])p.d(A)[sp].d([m5C])[sp].d([m5C])[sp].d(A)[sp].d(T)[sp].d(T)[sp].d(T)[sp].d(T)[sp].d(G)[sp].d(A)[sp].[moe]([m5C])p.[moe]([m5C])[sp].[moe](T)}$$$$ (last 3' nucleoside missing)”, for which the 3 h FOB score turned out to be 0 score 0-7.

On to “RNA1{[moe](T)[sp].[moe](G)p.[moe]([m5C])p.[moe](A)p.[moe](T)p.[moe](A)p.d([m5C])[sp].d([m5C])[sp].d([m5C])[sp].d(A)[sp].d(G)[sp].d(G)[sp].d(G)[sp].d(T)[sp].d(A)[sp].d(G)[sp].[moe](G)p.[moe](A)[sp].[moe](T)}$$$$ (last 3' nucleoside missing)”, for which the 3 h FOB score is 4 score 0-7.

As for “RNA1{[moe](T)[sp].[moe](G)p.[moe](T)p.[moe]([m5C])p.[moe](G)p.d(A)[sp].d(G)[sp].d(A)[sp].d(A)[sp].d([m5C])[sp].d(T)[sp].d([m5C])[sp].d(A)[sp].d(A)[sp].d(A)[sp].[moe](A)p.[moe](G)p.[moe](G)[sp].[moe](T)}$$$$ (last 3' nucleoside missing)”, the 3 h FOB score worked out at 4.5 score 0-7.

With “RNA1{[moe](G)[sp].[moe](T)p.[moe](G)p.[moe](T)p.[moe](G)p.d([m5C])[sp].d([m5C])[sp].d(A)[sp].d(T)[sp].d(A)[sp].d(G)[sp].d(G)[sp].d(T)[sp].d(T)[sp].d(T)[sp].[moe]([m5C])p.[moe](A)p.[moe](G)[sp].[moe](G)}$$$$ (last 3' nucleoside missing)”, the 3 h FOB score amounted to 2.8 score 0-7.

“RNA1{[moe](T)[sp].[moe](T)p.[moe](G)p.[moe]([m5C])p.d(T)[sp].d(G)[sp].d(A)[sp].d(T)[sp].d([m5C])[sp].d(A)[sp].d([m5C])[sp].d(A)[sp].d(T)[sp].d(T)[sp].[moe](A)p.[moe]([m5C])p.[moe]([m5C])p.[moe]([m5C])[sp].[moe](A)}$$$$ (last 3' nucleoside missing)” displayed a 3 h FOB score of 0 score 0-7.

For the substance “RNA1{[moe](G)[sp].[moe]([m5C])p.[moe](T)p.[moe](A)p.[moe](T)p.d(A)[sp].d(G)[sp].d(G)[sp].d(T)[sp].d(G)[sp].d(T)[sp].d([m5C])[sp].d(A)[sp].d([m5C])[sp].d(A)[sp].[moe](T)p.[moe](A)p.[moe](T)[sp].[moe](T)}$$$$ (last 3' nucleoside missing)”, the 3 h FOB score amounted to 2 score 0-7.

Turning to “RNA1{[moe]([m5C])[sp].[moe](A)p.[moe](G)p.[moe]([m5C])p.[moe]([m5C])p.d(A)[sp].d([m5C])[sp].d(T)[sp].d(T)[sp].d(T)[sp].d(G)[sp].d([m5C])[sp].d(A)[sp].d(A)[sp].d([m5C])[sp].[moe](T)p.[moe]([m5C])p.[moe](A)[sp].[moe](A)}$$$$ (last 3' nucleoside missing)”, the 3 h FOB score was found to be 6.2 score 0-7.

As to “RNA1{[moe](T)[sp].[moe](G)p.[moe]([m5C])p.[moe](A)[sp].d(T)[sp].d(A)[sp].d([m5C])[sp].d([m5C])[sp].d([m5C])[sp].d(A)[sp].d(G)[sp].d(G)[sp].[moe](G)p.[moe](T)p.[moe](A)p.[moe](G)[sp].[moe](G)}$$$$ (last 3' nucleoside missing)”, the 3 h FOB score was determined as 0 score 0-7.

As to “RNA1{[moe](A)[sp].[moe](A)p.[moe]([m5C])p.[moe](G)p.[moe]([m5C])p.[moe](A)p.d(A)[sp].d(T)[sp].d(G)[sp].d(T)[sp].d(A)[sp].d(T)[sp].d([m5C])[sp].d(A)[sp].d(G)[sp].d(G)[sp].[moe]([m5C])p.[moe](A)[sp].[moe](A)}$$$$ (last 3' nucleoside missing)”, the 3 h FOB score was determined as 4.7 score 0-7.

Substance “RNA1{[moe](G)[sp].[moe](A)p.[moe](T)p.[moe]([m5C])p.[moe](A)[sp].d([m5C])[sp].d(A)[sp].d(T)[sp].d(T)[sp].d(A)[sp].d([m5C])[sp].d([m5C])[sp].d([m5C])[sp].[moe](A)p.[moe](T)p.[moe]([m5C])[sp].[moe]([m5C])}$$$$ (last 3' nucleoside missing)” registered a 3 h FOB score of 2 score 0-7.

Take “RNA1{[moe](T)[sp].[moe](G)p.[moe](A)p.[moe](T)p.[moe]([m5C])p.[moe](A)p.d([m5C])[sp].d(A)[sp].d(T)[sp].d(T)[sp].d(A)[sp].d([m5C])[sp].d([m5C])[sp].d([m5C])[sp].d(A)[sp].d(T)[sp].[moe]([m5C])p.[moe]([m5C])[sp].[moe](G)}$$$$ (last 3' nucleoside missing)”: the 3 h FOB score is 0 score 0-7.

Substance “RNA1{[moe]([m5C])[sp].[moe]([m5C])p.[moe](A)p.[moe]([m5C])p.[moe](A)p.d([m5C])[sp].d(A)[sp].d(T)[sp].d(A)[sp].d(T)[sp].d(A)[sp].d(G)[sp].d(G)[sp].d([m5C])[sp].d(T)[sp].[moe](A)p.[moe](G)p.[moe]([m5C])[sp].[moe]([m5C])}$$$$ (last 3' nucleoside missing)” displayed a 3 h FOB score of 1 score 0-7.

“RNA1{[moe](T)[sp].[moe](A)p.[moe](G)p.[moe](G)p.[moe](T)p.d([m5C])[sp].d(A)[sp].d(A)[sp].d([m5C])[sp].d([m5C])[sp].d(A)[sp].d(A)[sp].d(T)[sp].d(T)[sp].d(T)[sp].[moe](G)p.[moe]([m5C])p.[moe](T)[sp].[moe](A)}$$$$ (last 3' nucleoside missing)”: the 3 h FOB score was determined as 0 score 0-7.

Turning to “RNA1{[moe](T)[sp].[moe](A)p.[moe](A)p.[moe](G)p.[moe](G)p.d(T)[sp].d([m5C])[sp].d(T)[sp].d(G)[sp].d(T)[sp].d(T)[sp].d(A)[sp].d(T)[sp].d(T)[sp].d([m5C])[sp].[moe](T)p.[moe]([m5C])p.[moe]([m5C])[sp].[moe]([m5C])}$$$$ (last 3' nucleoside missing)”, the 3 h FOB score was found to be 0.8 score 0-7.

As to “RNA1{[moe](G)[sp].[moe](T)p.[moe](G)p.[moe](T)p.[moe]([m5C])p.d(A)[sp].d(T)[sp].d(A)[sp].d(T)[sp].d(G)[sp].d(T)[sp].d(A)[sp].d(G)[sp].d([m5C])[sp].d(A)[sp].[moe](A)p.[moe](T)p.[moe](T)[sp].[moe](A)}$$$$ (last 3' nucleoside missing)”, the 3 h FOB score came to 6.5 score 0-7.
